# Source: publication PMC9609996, “SAR Study and Molecular Mechanism Investigation of Novel Naphthoquinone-furan-2-cyanoacryloyl Hybrids with Antitumor Activity” (Pharmaceutics, 2022)
# Tests used:
# [1] = test system: AKT phosphorylation in HeLa cells; assay: Western blot, AKT phosphorylation; format: cell-based, human; conditions: 6 h interval
# Method: Protein levels were determined by the standard Western blot assay. […] Cells harvested with trypsin were treated with 1× RIPA lysis buffer (50 mM Tris-HCl, pH 7.4, 150 mM NaCl, 0.25% deoxycholic acid, 1% NP-40, 1 mM ethylenediaminetetraacetate (EDTA), and protease inhibitor PMSF (Solarbio, Beijing, China) to extract the total proteins. Then, an aliquot of proteins from the total cell lysates (4–40 μg/lane) was separated using sodium dodecyl sulfate (8, 10, or 12%) polyacrylamide gel electrophoresis (BioRad Laboratories, Hercules, CA, USA). The aliquot was wet-transferred to a PVDF membrane (BioRad Laboratories, Hercules, CA, USA), blotted with primary antibodies (purchased from Cell Signaling Technology, Danvers, MA, USA) specific for the STAT3 (#12640), p-STAT3 (#9145), AKT (#4691), p-AKT (#4060), Bax (#5023), Bcl-xl (#2764), secondary isotype-specific antibodies (#7074) and glyceraldehyde-3-phosphate dehydro-genase (GAPDH, #2118) as the internal standard overnight; then, they were probed with secondary isotype-specific antibodies for another 2 h at 37 °C. The bound immuno-complexes were detected using a ChemiDOC XRS+ system (BioRad Laboratories, Hercules, CA, USA).
# [2] = test system: A549; assay: CCK-8 anti-proliferation assay, A549; format: cell-based, human; conditions: mean ± SD; for IC50: 48 h
# Method: (§1) Human cervical cancer HeLa, human prostate cancer PC3, human colonic carcinoma HCT116, human lung carcinoma A549, human breast cancer MDA-MB-231, mouse melanoma B16, human ovarian cancer SKOV3, human hepatoma Hep3B, and human liver L02 cells were purchased from the Cell Bank of Shanghai Institute of Biochemistry and Cell Biology, Chinese Academy of Sciences (Shanghai, China). The HeLa, A549, B16, PC3, MDA-MB-231, HCT116, and L02 cells were cultured in Dulbecco’s modified Eagle medium (DMEM, Gibco Inc.; Gaithersburg, MD, USA). All cultures were supplied with 10% fetal bovine serum (FBS; YHSM, Beijing, China), 100 IU/mL of penicillin, and 100 μg/mL of streptomycin, and cells were incubated at 37 °C in an atmosphere of 5% CO2.
# (§2) A CCK-8 kit (MCE, USA) was used to perform a CCK-8 assay. Cells were plated and grown in the 96-well plates for the indicated period (48 h) in the incubator, followed by an incubation with the CCK-8 solutions for 1–4 h. Subsequently, the absorbance (450 nm) was measured by a microplate reader. The median inhibitory concentration (IC50) was determined from the dose–response curve. Experiments were performed in a triplicate.
# [3] = test system: MDA-MB-231; assay: CCK-8 anti-proliferation assay, MDA-MB-231; format: cell-based, human; conditions: mean ± SD
# Method: as §1, §2
# [4] = test system: Hep3B; assay: CCK-8 anti-proliferation assay, Hep3B; format: cell-based, human; conditions: 48 h, mean ± SD
# Method: as §1, §2
# [5] = test system: four cancer cell lines (HeLa, PC3, A549, and HCT116); assay: CCK-8 inhibition rates over four cancer cell lines; format: cell-based; conditions: Homo sapiens, HeLa, PC3, A549, HCT116, CCK-8, read-out: inhibition rate, span over the four cancer cell lines
# Method: First, the inhibition rates at 20 μM for all newly synthesized compounds were evaluated on four cancer cell lines (HeLa, PC3, A549, and HCT116) by a CCK-8 assay. […] A variety of aliphatic amine substituents were well tolerated (4e, 4f, 5c, and 8f).
# as §1, §2
# [6] = test system: HCT116; assay: CCK-8 anti-proliferation assay, HCT116; format: cell-based, human; conditions: Homo sapiens, mean ± SD
# Method: as §1, §2
# [7] = test system: HeLa cells; assay: Wound healing assay; format: cell-based, human; conditions: 6 μM, 48 h
# Method: A total of 1 × 10^6 HeLa cells/well in the logarithmic growth phase were seeded into 6-well plates. When the cell density reached 80–90%, a scratch was made in the monolayer in the middle of the well with a 200 μL pipette tip. The tip was kept perpendicular to the bottom of the well to obtain a straight gap. The detached cells were washed away and removed. Wound healing within the same scraped line was then observed and photographed at the indicated time points (0 h, 24 h, and 48 h). Images were taken at 0 h, 24 h and 48 h after scraping using a phase-contrast microscope. The wound closure was calculated as a percentage (%) of the difference in the width of the wound between 0 h, 24 h and 48 h relative to 0 h, as described below: Wound closure (%) = (Width of wound at 0 h − Width of wound at 24 h)/Width of wound at 0 h × 100%
# [8] = test system: Bcl-xl in HeLa cells; assay: Western blot, Bcl-xl; format: cell-based, human; conditions: 6–12 μM, 24 h
# Method: Protein levels were determined by the standard Western blot assay. HeLa cells were incubated with different concentrations of compound 5c or 0.1% DMSO for 24 h. Cells harvested with trypsin were treated with 1× RIPA lysis buffer (50 mM Tris-HCl, pH 7.4, 150 mM NaCl, 0.25% deoxycholic acid, 1% NP-40, 1 mM ethylenediaminetetraacetate (EDTA), and protease inhibitor PMSF (Solarbio, Beijing, China) to extract the total proteins. Then, an aliquot of proteins from the total cell lysates (4–40 μg/lane) was separated using sodium dodecyl sulfate (8, 10, or 12%) polyacrylamide gel electrophoresis (BioRad Laboratories, Hercules, CA, USA). The aliquot was wet-transferred to a PVDF membrane (BioRad Laboratories, Hercules, CA, USA), blotted with primary antibodies (purchased from Cell Signaling Technology, Danvers, MA, USA) specific for the STAT3 (#12640), p-STAT3 (#9145), AKT (#4691), p-AKT (#4060), Bax (#5023), Bcl-xl (#2764), secondary isotype-specific antibodies (#7074) and glyceraldehyde-3-phosphate dehydro-genase (GAPDH, #2118) as the internal standard overnight; then, they were probed with secondary isotype-specific antibodies for another 2 h at 37 °C. The bound immuno-complexes were detected using a ChemiDOC XRS+ system (BioRad Laboratories, Hercules, CA, USA).
# [9] = test system: STAT3 in HeLa cells; assay: Western blot, STAT3 and p-STAT3 (Y705); format: cell-based, human; conditions: 6–12 μM, 24 h
# Method: As many quinone compounds have anti-proliferation activity by inhibiting the STAT3 [34], we evaluated whether compound 5c could inhibit its phosphorylation. HeLa cells were incubated with different concentrations (6–12 μM) of 5c for 24 h. Then, the levels of total STAT3 and phosphorylated STAT3 at the tyrosine 705 residue were detected by a Western blot analysis.
# Protein levels were determined by the standard Western blot assay. HeLa cells were incubated with different concentrations of compound 5c or 0.1% DMSO for 24 h. […] The bound immuno-complexes were detected using a ChemiDOC XRS+ system (BioRad Laboratories, Hercules, CA, USA).
smiles,measurement,setting,value
"N#C/C(=C\c1ccc(C2=CC(=O)c3ccccc3C2=O)o1)C(=O)NCCN1CCOCC1 [Compound 5c, (E)-2-cyano-3-(5-(1,4-dioxo-1,4-dihydronaphthalen-2-yl)furan-2-yl)-N-(2-morpholinoethyl)acrylamide]",phosphorylation level of AKT,[1],effectively inhibited
same,IC50,[2],35.27 ± 0.07 µM
same,inhibition at 20 µM,"[2]; Homo sapiens, A549, 20 μM, read-out: Inhibition Rate (%) at 20 μM A549",24.69 ± 0.04%
same,IC50,"[2]; Homo sapiens, A549, 48 h",> 20.5 µM
same,IC50,[3]; 48 h,40.74 ± 0.12 µM
same,IC50,"[3]; Homo sapiens, MDA-MB-231, 48 h",> 20.5 µM
same,IC50,[4],34.77 ± 0.03 µM
same,IC50,[4]; Homo sapiens,> 20.5 µM
same,inhibition at 20 µM,[5],24.7 to 75.8%
same,inhibition at 20 µM,"[6]; HCT-116, 20 μM, read-out: Inhibition Rate (%) at 20 μM HCT116",67.67 ± 0.01%
same,IC50,"[6]; HCT-116, 48 h",13.38 ± 0.04 µM
same,cell migration,[7],significantly inhibited
same,total Bcl-xl levels,[8],significantly decreased
same,Y705 STAT3 phosphorylation,[9],dose-dependently abrogated
same,level of total STAT3,[9],slightly down-regulated
